Format in all cases: functional
In assay [1] the test system is Cavia porcellus. Description: Antipruritic activity in Cavia porcellus (guinea pig) histamine phosphate-induced itching model assessed as increase of total amount of histamine phosphate level at 50 mg/kg, administered 1 hr before histamine phosphate challenge with food relative to levocetirizine.
For assay [2], the system named is Cavia porcellus. Nature of the assay: Antipruritic activity in Cavia porcellus (guinea pig) histamine phosphate-induced itching model assessed as increase of total amount of histamine phosphate level at 50 mg/kg, administered 1 hr before histamine phosphate challenge with food relative to control.
The subject of assay [3] is Cavia porcellus. Description: Antiasthmatic activity in Cavia porcellus (guinea pig) histamine phosphate-induced asthmatic model assessed as latent period of asthma at 50 mg/kg, administered 1 hr before histamine phosphate challenge with food (reference value: 115.4 +/- 126.2 /s).

Activity and Time data for 19 compounds are collected here from ChEMBL document CHEMBL3046939, “Design, synthesis, and anti-allergic activities of novel (R)(-)-1-[(4-chlorophenyl)phenyl methyl]piperazine derivatives” (2012).

As to `Cc1cc(C)nc(NS(=O)(=O)c2ccc(NCCCN3CCN([C@H](c4ccccc4)c4ccc(Cl)cc4)CC3)cc2)n1`, the Activity in assay [1] is -0.15%; in assay [2] it was 382.83%. For the same compound, the Time in assay [3] came to 136.8 s.
As to `COc1ccc(N(CCN2CCN([C@H](c3ccccc3)c3ccc(Cl)cc3)CC2)S(=O)(=O)c2ccc(N)cc2)nn1`, the values for the Activity in assay [1] and in assay [2] were 62.62% and 686.34%, respectively. Moreover, in assay [3], the Time worked out at 288 s.
For `Nc1ccc(S(=O)(=O)N(CCCN2CCN([C@H](c3ccccc3)c3ccc(Cl)cc3)CC2)c2ccc(Cl)nn2)cc1`, the Activity is 10.1% in assay [1] and 432.37% in assay [2]. The Time in assay [3] turned out to be 301.8 s.
On the same counts, the results for `O=C(O)CNCCCN1CCN([C@H](c2ccccc2)c2ccc(Cl)cc2)CC1` are 22.71%, 493.36% and 360 s.
In the case of `O=S(=O)(Nc1ncccn1)c1ccc(NCCN2CCN([C@H](c3ccccc3)c3ccc(Cl)cc3)CC2)cc1`, the results for the Activity in assay [1] and in assay [2] were 217.8% and 1436.72%, respectively. Besides, in assay [3], the Time was determined as 246.4 s.
For `O=S(=O)(Nc1ncccn1)c1ccc(NCCCN2CCN([C@H](c3ccccc3)c3ccc(Cl)cc3)CC2)cc1` the same measures were 39.93%, 576.61% and 229.2 s.
With `Nc1ccc(S(=O)(=O)NCCCN2CCN([C@H](c3ccccc3)c3ccc(Cl)cc3)CC2)cc1`, the Activity in assay [1] is given as 107.15%; in assay [2], 901.67%. In assay [3], the Time worked out at 269.4 s.
On the same counts, the results for `Nc1ccc(S(=O)(=O)N(CCN2CCN([C@H](c3ccccc3)c3ccc(Cl)cc3)CC2)c2nccs2)cc1` are 9.4%, 429.01% and 184.8 s.
On the same counts, the results for `O=S(=O)(Nc1nccs1)c1ccc(NCCN2CCN([C@H](c3ccccc3)c3ccc(Cl)cc3)CC2)cc1` are -18.8%, 292.61% and 360 s.
With `O=S(=O)(Nc1ccc(Cl)nn1)c1ccc(NCCCN2CCN([C@H](c3ccccc3)c3ccc(Cl)cc3)CC2)cc1`, the Activity in assay [1] worked out at 82.74%; in assay [2], 783.62%. In addition, in assay [3], the Time was 184.1 s.
On to `Nc1ccc(S(=O)(=O)N(CCN2CCN([C@H](c3ccccc3)c3ccc(Cl)cc3)CC2)c2ccc(Cl)nn2)cc1`, for which the results for the Activity in assay [1] and in assay [2] were -78% and 6.4%, respectively. The Time in assay [3] is reported as 151.2 s.
Turning to `COc1ccc(NS(=O)(=O)c2ccc(NCCN3CCN([C@H](c4ccccc4)c4ccc(Cl)cc4)CC3)cc2)nn1`, the figures for the Activity in assay [1] and in assay [2] were -21.49% and 279.65%, respectively. For the same compound, the Time in assay [3] stood at 360 s.
On the same counts, the results for `Nc1ccc(S(=O)(=O)N(CCCN2CCN([C@H](c3ccccc3)c3ccc(Cl)cc3)CC2)c2nccs2)cc1` are 2.44%, 395.34% and 240.3 s.
For the compound `Cc1cc(C)nc(NS(=O)(=O)c2ccc(NCCN3CCN([C@H](c4ccccc4)c4ccc(Cl)cc4)CC3)cc2)n1`, the Activity in assay [1] is -60.28%; in assay [2], 92.07%. The Time in assay [3] turned out to be 167.4 s.
As for `C[C@H](NCCCN1CCN([C@H](c2ccccc2)c2ccc(Cl)cc2)CC1)C(=O)O`, the Activity in assay [1] is given as 113.8%; in assay [2], 933.8%. Further, in assay [3], the Time was determined as 307.6 s.
Consider `O=S(=O)(Nc1nccs1)c1ccc(NCCCN2CCN([C@H](c3ccccc3)c3ccc(Cl)cc3)CC2)cc1`, for which the Activity in assay [1] is given as -18.04%; in assay [2], 296.34%. In assay [3], the Time was determined as 324.8 s.
Take `O=S(=O)(Nc1ccc(Cl)nn1)c1ccc(NCCN2CCN([C@H](c3ccccc3)c3ccc(Cl)cc3)CC2)cc1`: the Activity in assay [1] came out at 103.46%; in assay [2] it was 883.81%. The Time in assay [3] is reported as 255.5 s.
In the case of `Nc1ccc(S(=O)(=O)NCCN2CCN([C@H](c3ccccc3)c3ccc(Cl)cc3)CC2)cc1`, the Activity came out at 2.55% in assay [1] and 395.87% in assay [2]. Besides, the Time in assay [3] is reported as 266.2 s.
For `COc1ccc(NS(=O)(=O)c2ccc(NCCCN3CCN([C@H](c4ccccc4)c4ccc(Cl)cc4)CC3)cc2)nn1`, the Activity in assay [1] was 43.42%; in assay [2], 593.5%. The Time in assay [3] stood at 295.6 s.
